Patent US20260166046A1, “Inhibitors of methionine aminopeptidase-2 and methods of preparation and uses thereof” (Primetime Life Sciences LLC, priority 2022, published 2026)
Like-named read-outs stand apart in the source and are kept apart here.

Key:
[1] = test system: G. lamblia GS; assay: Trophozoite viability IC50 determination, Giardia assay (ATPLite); type: cell-based; settings: read-out: Cell viability values Mean IC50 (nM) G. lamblia GS
Description: (§1) Giardia cultures: Trophozoites of G. lamblia isolates WB and GS were grown anaerobically in borosilicate glass screw-cap culture tubes (Fisher Scientific) at pH 7.0 in modified TYI-S-33 medium. The medium was supplemented with 10% heat-inactivated bovine serum (Sigma-Aldrich) and 0.05% bovine bile (Sigma-Aldrich). To attain low-oxygen-tension conditions, the tubes were filled to 85 to 90% of their total volume capacity and incubated without shaking at 37° C. Subcultures (2×10^5 trophozoites per tube) were made three times a week. Detachment of trophozoites for inoculation was achieved by chilling the cultures on ice for 20 min. Culturing and detachment of Metronidazole-resistant G. lamblia Assemblage A 713M3 and assemblage B 1279-M1 trophozoites followed the same protocol, except that the growth medium was supplemented with metronidazole gradually increasing the concentration to 10 μM. Amebae cultures: E. histolytica strain HM1:IMSS trophozoites were grown at 37° C. in TYI-S-33 medium supplemented with penicillin (100 U/mL) and streptomycin sulfate (100 μg/mL). Trophozoites were grown anaerobically in borosilicate tubes and subcultures were made 1-2 times a week. Trophozoites were detached for inoculation by chilling the cultures on ice for 20 minutes.
(§2) Trophozoite viability IC50determination
(§3) Giardia assays: 10 μL giardia trophozoites in growth medium were plated at a density of 10,000 cells/well in sterile 96-well black clear bottom assay plates. Fumagillin and fumagillol derivatives were 1:3 serially diluted from a 1 μM DMSO stock solution and then 100 μL/well were transferred in duplicate to the assay wells. Metronidazole (control) was 1:3 serially diluted in growth medium from a 100 μM stock solution in DMSO. The assay plates were placed in a BD GasPak™ EZ Container System (BD Diagnostics) to create an anaerobic growth environment. The sealed containers were incubated at 37° C. for 72 hr. Following incubation, 70 μL/well of the ATPLite reagent (PerkinElmer) was added to the assay plates for one-step lysis and ATP level detection. The luminescent signals of the assay plates were measured on an EnSpire 2300 plate reader (PerkinElmer). Concentration response titration points for each compound were fitted to a 4-parameters logistic nonlinear regression model using KaleidaGraph, yielding the IC50value and standard error (SE).

[2] = test system: G. lamblia WB; assay: as above; type: cell-based; settings: Giardia duodenalis, read-out: Cell viability values Mean IC50 (nM) G. lamblia WB
Description: as §1, §2, §3

[3] = test system: E. histolytica HM1: IMSS; assay: Trophozoite viability IC50 determination, Amebae assay (ATPLite); type: cell-based; settings: Entamoeba histolytica, read-out: Cell viability values Mean IC50 (nM) E. histolytica HM1: IMSS
Description: as §1, §2, §3
Amebae assays: The protocol is identical to that described above except that the trophozoites were plated at a density of 5000 cells/well because of their larger size.

[4] = target: T1, Recombinant human MetAP2 (Homo sapiens, UniProt P50579); assay: MetAP2 fluorescence assay; type: biochemical; settings: recombinant human MetAP2, H-Met-Gly-Pro-AMC substrate
T1 construct: purchased Bio-Techne/R&D systems
Description: MetAP2 Fluorescence Assay
Recombinant human MetAP2 (Bio-Techne/R&D systems) was diluted to 10 μg/mL in the assay buffer (50 mM HEPES, 0.1 mM CoCl2, 100 mM NaCl, pH 7.5). The substrate, H-Met-Gly-Pro-AMC (Bio-Techne/R&D systems), was diluted to 500 μM with 2 μg/mL of the coupling enzyme, recombinant human dipeptidyl peptidase-4 (Bio-Techne/R&D systems), in assay buffer. 50 μL of 10 μg/mL recombinant human METAP2 were loaded into a flat-bottom black 96-well plate (Greiner Bio), and the reaction was initiated by adding 50 μL of the substrate/dipeptidyl peptidase-4 mixture. The reaction mixture was incubated at room temperature for 10 minutes, and the fluorescence was measured for 5 minutes at excitation and emission wavelengths of 380 nm and 460 nm, respectively, in kinetic mode. For IC50determination, 0.5 μL inhibitor solution was added to the reaction mixture. The reaction rates were used to calculate IC50with KaleidaGraph.

[5] = Giardia duodenalis, trophozoites, 72 hr, anaerobic, ATP level
[6] = trophozoites, 72 hr, anaerobic, ATP level

T1 sequence (P50579 whole entry): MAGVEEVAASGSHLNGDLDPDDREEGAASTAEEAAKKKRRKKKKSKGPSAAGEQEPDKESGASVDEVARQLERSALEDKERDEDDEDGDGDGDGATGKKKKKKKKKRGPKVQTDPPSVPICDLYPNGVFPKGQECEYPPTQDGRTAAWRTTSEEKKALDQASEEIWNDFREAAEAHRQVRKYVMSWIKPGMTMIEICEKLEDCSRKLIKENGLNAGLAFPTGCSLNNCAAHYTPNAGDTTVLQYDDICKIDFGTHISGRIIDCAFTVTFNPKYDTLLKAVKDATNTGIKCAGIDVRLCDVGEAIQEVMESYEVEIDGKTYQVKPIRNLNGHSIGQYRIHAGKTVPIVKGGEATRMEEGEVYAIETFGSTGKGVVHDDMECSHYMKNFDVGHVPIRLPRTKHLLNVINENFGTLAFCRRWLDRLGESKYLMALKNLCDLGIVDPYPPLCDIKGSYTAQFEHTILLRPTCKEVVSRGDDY

Compound	IC50 ([1]; Giardia duodenalis, 72 h)	IC50 ([2]; 72 h)	IC50 ([3]; 72 h)	IC50 [4]	IC50 [1, 5]	IC50 [2, 6]	IC50 [3, 6]	IC50 [1, 6]
COC1C(OC(=O)NCc2cc(C#N)cc(B(O)O)c2)CCC2(CO2)C1C1(C)OC1CC=C(C)C (stereo not shown) [No 36]	101 to 1000 nM	> 1000 nM	> 1000 nM	–	–	–	–	–
CO[C@@H]1[C@H](OC(=O)Nc2ccc3c(c2)CCOB3O)CC[C@]2(CO2)[C@H]1[C@@]1(C)O[C@@H]1CC=C(C)C [No 13]	< 10 nM	10.1 to 100 nM	101 to 1000 nM	< 10 nM	–	–	–	–
CO[C@@H]1[C@H](OC(=O)N[C@@H](CC(C)C)B(O)O)CC[C@]2(CO2)[C@H]1[C@@]1(C)O[C@@H]1CC=C(C)C [No 67]	10.1 to 100 nM	101 to 1000 nM	101 to 1000 nM	< 10 nM	–	–	–	–
CO[C@@H]1[C@H](OC(=O)Nc2ccncc2B(O)O)CC[C@]2(CO2)[C@H]1[C@@]1(C)O[C@@H]1CC=C(C)C [No 37]	10.1 to 100 nM	> 1000 nM	> 1000 nM	< 10 nM	–	–	–	–
CO[C@@H]1[C@H](OC(=O)NCc2ccc(B(O)O)cc2)CC[C@]2(CO2)[C@H]1[C@@]1(C)O[C@@H]1CC=C(C)C [No 30]	101 to 1000 nM	101 to 1000 nM	101 to 1000 nM	< 10 nM	–	–	–	–
CO[C@@H]1[C@H](OC(=O)Nc2cc(C#N)ccc2B(O)O)CC[C@]2(CO2)[C@H]1[C@@]1(C)O[C@@H]1CC=C(C)C [No 24]	101 to 1000 nM	101 to 1000 nM	> 1000 nM	< 10 nM	–	–	–	–
COC1C(OC(=O)NCc2ccc(F)cc2B(O)O)CCC2(CO2)C1C1(C)OC1CC=C(C)C (stereo not shown) [No 32]	101 to 1000 nM	> 1000 nM	> 1000 nM	–	–	–	–	–
COC(=O)c1cc(NC(=O)OC2CCC3(CO3)C(C3(C)OC3CC=C(C)C)C2OC)cc(B(O)O)c1 (stereo not shown) [No 27]	101 to 1000 nM	101 to 1000 nM	101 to 1000 nM	–	–	–	–	–
CO[C@@H]1[C@H](OC(=O)Nc2cccc(B(O)O)c2Cl)CC[C@]2(CO2)[C@H]1[C@@]1(C)O[C@@H]1CC=C(C)C [No 45]	101 to 1000 nM	> 1000 nM	> 1000 nM	< 10 nM	–	–	–	–
CO[C@@H]1[C@H](OC(=O)N[C@H](C)B(O)O)CC[C@]2(CO2)[C@H]1[C@@]1(C)O[C@@H]1CC=C(C)C [No 70]	10.1 to 100 nM	101 to 1000 nM	> 1000 nM	< 10 nM	–	–	–	–
COC1C(OC(=O)N2CCOc3c(B(O)O)cncc32)CCC2(CO2)C1C1(C)OC1CC=C(C)C (stereo not shown) [No 66]	101 to 1000 nM	> 1000 nM	> 1000 nM	–	–	–	–	–
CO[C@@H]1[C@H](OC(=O)Nc2ccc(F)c(F)c2B(O)O)CC[C@]2(CO2)[C@H]1[C@@]1(C)O[C@@H]1CC=C(C)C [No 34]	–	–	–	< 10 nM	101 to 1000 nM	> 1000 nM	> 1000 nM	–
CO[C@@H]1[C@H](OC(=O)Nc2cccc3c2COB3O)CC[C@]2(CO2)[C@H]1[C@@]1(C)O[C@@H]1CC=C(C)C [No 12]	10.1 to 100 nM	101 to 1000 nM	101 to 1000 nM	< 10 nM	–	–	–	–
CO[C@@H]1[C@H](OC(=O)N(C)c2ccc3c(c2)B(O)OCC3)CC[C@]2(CO2)[C@H]1[C@@]1(C)O[C@@H]1CC=C(C)C [No 16]	–	–	–	< 10 nM	101 to 1000 nM	101 to 1000 nM	101 to 1000 nM	–
CO[C@@H]1[C@H](OC(=O)Nc2cc(B(O)O)cc(F)n2)CC[C@]2(CO2)[C@H]1[C@@]1(C)O[C@@H]1CC=C(C)C [No 50]	10.1 to 100 nM	> 1000 nM	> 1000 nM	< 10 nM	–	–	–	–
CO[C@@H]1[C@H](OC(=O)N2CCc3cc(B(O)O)ccc32)CC[C@]2(CO2)[C@H]1[C@@]1(C)O[C@@H]1CC=C(C)C [No 58]	101 to 1000 nM	> 1000 nM	> 1000 nM	< 10 nM	–	–	–	–
COc1nsc(CNC(=O)OC2CCC3(CO3)C(C3(C)OC3CC=C(C)C)C2OC)c1B(O)O (stereo not shown) [No 57]	101 to 1000 nM	> 1000 nM	> 1000 nM	–	–	–	–	–
COC1C(OC(=O)NCCn2cc(B(O)O)cn2)CCC2(CO2)C1C1(C)OC1CC=C(C)C (stereo not shown) [No 61]	101 to 1000 nM	> 1000 nM	> 1000 nM	–	–	–	–	–
CO[C@@H]1[C@H](OC(=O)Nc2ccc3c(c2)B(O)OC3C)CC[C@]2(CO2)[C@H]1[C@@]1(C)O[C@@H]1CC=C(C)C (stereo partly shown) [No 7]	–	–	–	< 10 nM	–	–	–	< 10 nM
CO[C@@H]1[C@H](OC(=O)Nc2cc(F)c3c(c2)B(O)OC3)CC[C@]2(CO2)[C@H]1[C@@]1(C)O[C@@H]1CC=C(C)C [No 8]	–	–	–	< 10 nM	–	–	–	< 10 nM
COC1C(OC(=O)N2CCC(n3cc(B(O)O)cn3)CC2)CCC2(CO2)C1C1(C)OC1CC=C(C)C (stereo not shown) [No 46]	101 to 1000 nM	> 1000 nM	> 1000 nM	–	–	–	–	–
COC1C(OC(=O)NCc2cncc(B(O)O)c2)CCC2(CO2)C1C1(C)OC1CC=C(C)C (stereo not shown) [No 42]	101 to 1000 nM	> 1000 nM	> 1000 nM	–	–	–	–	–
CO[C@@H]1[C@H](OC(=O)Nc2ccc3c(c2)COB3O)CC[C@]2(CO2)[C@H]1[C@@]1(C)O[C@@H]1CC=C(C)C [No 1, (3R,4S,5S,6R)-5-methoxy-4-((2R,3R)-2-methyl-3-(3-methylbut-2-en-1-yl)oxiran-2-yl)-1-oxaspiro[2.5]octan-6-yl (1-hydroxy-1,3-dihydrobenzo[c][1,2]oxaborol-5-yl)carbamate]	–	–	–	–	< 10 nM	< 10 nM	< 10 nM	–
COC1C(OC(=O)N2CC(B(O)O)Cn3ccnc32)CCC2(CO2)C1C1(C)OC1CC=C(C)C (stereo not shown) [No 56]	101 to 1000 nM	> 1000 nM	> 1000 nM	–	–	–	–	–
CO[C@@H]1[C@H](OC(=O)Nc2cc3c(cc2F)B(O)OC3(C)C)CC[C@]2(CO2)[C@H]1[C@@]1(C)O[C@@H]1CC=C(C)C [No 4]	–	–	–	< 10 nM	–	–	–	< 10 nM
CO[C@@H]1[C@H](OC(=O)N(C)c2ccc3c(c2)COB3O)CC[C@]2(CO2)[C@H]1[C@@]1(C)O[C@@H]1CC=C(C)C [No 5]	–	–	–	< 10 nM	–	–	–	–
CO[C@@H]1[C@H](OC(=O)NCCc2ccccc2B(O)O)CC[C@]2(CO2)[C@H]1[C@@]1(C)O[C@@H]1CC=C(C)C [No 39]	101 to 1000 nM	> 1000 nM	–	< 10 nM	–	–	–	–
COC(=O)c1ccc(B(O)O)c(NC(=O)OC2CCC3(CO3)C(C3(C)OC3CC=C(C)C)C2OC)c1 (stereo not shown) [No 26]	101 to 1000 nM	> 1000 nM	> 1000 nM	–	–	–	–	–
